Laboratory results: patent US12546785B2, “IL-17F and IL-17A-specific capture agents, compositions, and methods of using and making” (Regeneron Pharmaceuticals, Inc., priority 2017, dated 2026)
One block for each molecule: values may come before it. Numbered stars: 1 amine (or outer) side, 2 acyl side, 3 side chain; on linkers, the order of the positions; unused ones are H or OH. Bridge positions count the residues as written; N and C are the ends. Square brackets hold non-standard residues; d marks the D form. Triazole bridges read from a SMILES are 1,4-linked. Peptide text beside a SMILES is read from it. * marks the point of attachment. ξ: configuration not given here. Biotinyl(3aR,4R,6aS) = O=C1N[C@@H]2[C@@H](CS[C@@H]2CCCCC(=O)*)N1; Biotin = O=C1N[C@H]2[C@H](CS[C@H]2CCCCC(=O)*)N1; dLys(N3) = [N-]=[N+]=NCCCC[C@@H](N)C(=O)O; Lys(N3) = [N-]=[N+]=NCCCC[C@H](N)C(=O)O; Ethylenediamine = C(CN[*:2])N[*:1]; PEG5 = NCCOCCOCCOCCOCCOCCC(=O)O; ξY = NC(Cc1ccc(O)cc1)C(=O)O; AEEEA = NCCOCCOCCOCC(=O)O; ξR = N=C(N)NCCCC(N)C(=O)O; Pra = C#CC[C@H](N)C(=O)O; ξPra = C#CCC(N)C(=O)O; ξK = NCCCCC(N)C(=O)O; PEG1 = NCCOCCC(=O)O

What was measured:
[1] = biological target: Plasmodium falciparum Histidine Rich Protein-2 (Pf.HRP-2) (Plasmodium falciparum, UniProt P05227); assay: biochemical; format: binding
[2] = biological target: T1, recombinant human IL-17A protein (Homo sapiens, UniProt Q16552); assay: ELISA affinity against IL-17A; format: binding
T1 construct: His tag
T1 sequence (Q16552 24-155): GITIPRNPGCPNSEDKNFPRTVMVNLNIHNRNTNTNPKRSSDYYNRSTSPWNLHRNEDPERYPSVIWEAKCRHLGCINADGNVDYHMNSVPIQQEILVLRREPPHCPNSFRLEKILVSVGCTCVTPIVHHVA
Protocol: The affinity of macrocycle LA3 (SEQ ID NO:44) against recombinant human IL-17A protein was determined by ELISA.

SMILES: CC(C)C[C@@H]1NC(=O)[C@H](CC(=O)O)NC(=O)[C@H](C(C)C)NC(=O)[C@H](CC(N)=O)NC(=O)[C@H](Cc2c[nH]c3ccccc23)NC(=O)CNC(=O)[C@](C)(NC(=O)[C@@H](N)CCCNC(=N)N)CCCCCC/C=C/CCC[C@@](C)(C(=O)N[C@@H](CCCCNC(=O)CCCC[C@@H]2SC[C@@H]3NC(=O)N[C@@H]32)C(=O)N[C@@H](CNC(=O)Cn2nncc2C[C@H](N)C(=O)N2CCC[C@@H]2C(=O)NCC(=O)N[C@H](CC(C)C)C(=O)N[C@H](CC(C)C)C(=O)N[C@H]2Cc3cn(nn3)CCCC[C@@H](C(N)=O)NC(=O)[C@H](CCCNC(=N)N)NC(=O)[C@H](Cc3ccc(O)cc3)NC(=O)[C@H](Cc3ccc(O)cc3)NC(=O)[C@H](CCCCN)NC(=O)[C@H](Cc3ccc(O)cc3)NC2=O)C(N)=O)NC1=O [cy(YKYYR)-linker-cy(GWNVDL)]
improvement over the better of the two ligand components ([1]; Pf.HRP-2): 100 fold

SMILES: N=C(N)NCCCC1NC(=O)[C@@H](Cc2ccc(O)cc2)NC(=O)[C@@H](Cc2ccc(O)cc2)NC(=O)C(CCCCN)NC(=O)C(Cc2ccc(O)cc2)NC(=O)C(N)Cc2cn(nn2)CCCC[C@H](C(=O)NCCOCCC(=O)NC2Cc3cn(nn3)CCCC[C@H](C(=O)NCCOCCOCCOCCOCCOCCC(=O)NCCNC(=O)CCCC[C@H]3SC[C@H]4NC(=O)N[C@H]43)NC(=O)C(CCCNC(=N)N)NC(=O)[C@@H](Cc3ccc(O)cc3)NC(=O)[C@@H](Cc3ccc(O)cc3)NC(=O)C(CCCCN)NC(=O)C(Cc3ccc(O)cc3)NC2=O)NC1=O (stereo partly drawn) [linked biligand] (H-[ξPra][ξY][ξK][dY][dY][ξR][dLys(N3)][PEG1][ξPra][ξY][ξK][dY][dY][ξR][dLys(N3)][PEG5]-{Ethylenediamine-Biotinyl(3aR,4R,6aS)}; triazole 1-7, 9-15)
EC50 [1]: 0.0208 ± 0.0013 µM

EC50 [2]: 0.0045 ± 0.0004 µM
SMILES: CC(C)C[C@H]1NC(=O)[C@@H](CCCNC(=N)N)NC(=O)[C@@H](Cc2ccccc2)NC(=O)[C@@H](Cc2c[nH]cn2)NC(=O)[C@@H](CCCNC(=N)N)NC(=O)[C@@H](NC(=O)COCCOCCOCCNC(=O)CCCC[C@@H]2SC[C@@H]3NC(=O)N[C@@H]32)Cc2cn(nn2)CCCC[C@@H](C(N)=O)NC1=O [LA3] ({Biotin-AEEEA}-[Pra][dR][dH][dF][dR][dL][Lys(N3)]-NH2; triazole 1-7)
